Source: US20180312493A1, “Antibiotic Compounds, Pharmaceutical Formulations Thereof And Methods And Uses Therefor” (Simon Fraser University, priority 2015, published 2018)
pIC50: −log10 of the molar value. ≈ marks a conversion by molar mass, not a printed value.

What was measured:
[1] = tested on: S. aureus (ATCC29213); test: In vitro susceptibility, broth microdilution (MIC); format: cell-based; settings: Staphylococcus aureus; S. aureus ATCC29213; 18-24 h, 37 C; read-out: Antimicrobial activity (MIC) S. aureus ATCC29213
Description: Epidemic methicillin resistant S. aureus (MRSA) strain sequenced at the Sanger Centre (MRSA252, NRS71) was obtained from NARSA (Network on Antimicrobial Resistance in S. aureus). Methicillin sensitive S. aureus (ATCC 29213 and 25923), methicillin resistant S. aureus (ATCC BAA-1762), and Salmonella typhimurium (ATCC BAA-185) were obtained from ATCC, The Global Bioresource Center. Acinetobacter baumannii (ATCC 19606 and ATCC 17978), Klebsiella pneumonia (C238), vancomycin resistant Enterococci #2 (2010A) (VRE#2), MRSA (USA400, MW2) and Pseudomonas aeruginosa (PA0-1) were obtained from the laboratory of Dr B. B. Finlay at the University of British Columbia (Vancouver, Canada).
The antimicrobial activities of PK inhibitor candidates were determined using the 96-well microtiter standard 2-fold serial broth microdilution method as described by CLSI (formerly NCCLS) with the various gram-positive and gram-negative bacteria species mentioned above. Bacteria from a single colony were grown, overnight in either BHI Broth (VRE), mueller hinton broth (S. aureus 29213; MRSA USA400, A. baumannii 19606, MRSA BAA-1762) or L-broth (P. aeruginosa, S. typhimurium, K. pneumonia and A. baumannii 17978). […] Culture plates were incubated for 18-24 h at 37° C., and optical density at 600 nm (OD600) was measured using a Benchmark Plus™ microplate spectrophotometer (Bio-Rad™). The absorbance control values for the series containing CAMHB and inhibitor were subtracted as background from the corresponding infected wells. Minimal inhibitory concentration (MIC) was defined as the lowest concentration of test compound leading to complete inhibition of cell growth in relation to compound-free control wells as determined by optical density. Vancomycin, methicillin and ciprofloxicin were used as reference compounds. All assays were run in triplicate or duplicate. Experiments were replicated at least twice to verify reproducibility using the above conditions.

[2] = target: T1, MRSA Pyk (Staphylococcus aureus, UniProt Q6GG09); test: MRSA pyruvate kinase (PK) activity, continuous LDH-coupled assay; format: biochemical, methicillin resistant S. aureus (MRSA252)
T1 construct: made in house; host or cells: E. coli BL-21 (DE3)
Description: Genomic DNA of MRSA strain Sanger 252 extracted using DNeasy Tissue Kit™ (Qiagen™) was used as a template to generate the His-tagged MRSA PK. Human cDNA from MCF-7 breast cancer cell line (courtesy of Dr. J Wong, BC Cancer Research Center (Vancouver, Canada)) was used as a template to generate the full-length human M2 PK enzyme. The following primer sets were used creating appropriate restriction sites (NdeI and XhoI sites underlined): For cloning of MRSA PK: M27F 5′-[…]-3′ and M27R 5′-[…]-3′, for cloning of human M2 PK isoform: hM2F 5′-[…]-3′ and hM2R 5′-[…]-3′. The resulting PCR fragments for each construct were cloned into the NdeI and XhoI unique sites of the bacterial expression vector pET-28a (+) (Novagen™). […] The sequence and the correct reading frame of all constructs were verified by sequencing. Human M1, R and L PK constructs in pET-28-a(+) vectors (courtesy of Dr. L. Cantley, Harvard Medical, School (Boston, USA)) were used to generate relevant recombinant His-tagged human PK isoforms.
MRSA and human constructs in pET-28a(+) were used to express relevant recombinant PK proteins in E. coli BL-21 (DE3). The proteins were expressed and purified using Ni-NTA agarose (Qiagen™) according to the manufacturer's protocol. Briefly, cells were grown to an absorbance of 0.4-0.5 at 600 nm in 2×YT medium, then induced with 0.1 mM IPTG for 3 h at 20° C. Cells were lysed by sonication on ice (3×10-s bursts with a 30-s recovery between bursts) in lysis buffer (0.2 mg/ml lysozyme, 50 mM Tris pH 7.5, 10 mM MgCl2, 200 mM NaCl, 100 mM KCl, 10% glycerol, 10 mM imidazole, 0.5% NP-40 and 1 mM DTT containing Complete™ protease inhibitor). Cell lysates were cleared by centrifugation (18,000×g in a Beckman™ JA-20 rotor) for 20 min at 4° C. and PK isoforms were purified by batch binding to Ni-NTA resin. The resins were then packed in columns (1×2 cm) and washed with 400 column volumes lysis buffer containing 30 mM imidazole. His-tagged PK isoforms were eluted with the same buffer containing 300 mM imidazole. The proteins were dialyzed overnight at 4° C. against 2000 volumes of ice-cold 30 mM Tris pH 7.5, 25 mM KCl, 5 mM MgCl2, 10% glycerol and 1 mM DTT to remove imidazole. All purification steps were done at 4° C.; enzymes were flash-frozen and stored at −70° C. Enzymatic activity of frozen protein preparations was stable for at least 10 months and up to 5 freeze/thaw cycles. Purity and physical integrity of proteins were assessed using SDS-polyacrylamide gel electrophoresis (SDS-PAGE) followed by coomassie blue staining. Protein concentration was estimated by Bradford assay (Bio-Rad Protein Assay™) using bovine serum albumin as a standard.
Candidate MRSA PK inhibitors were assayed for their ability to inhibit enzymatic activities of MRSA and human PKs. PK activity was determined using a continuous assay coupled to lactate dehydrogenase (LDH) in which the change in absorbance at 340 nm owing to oxidation of NADH was measured using a Benchmark Plus™ microplate spectrophotometer (Bio-Rad Laboratories, Hercules, Calif.). […] Reactions were initiated by the addition of 15 nM of one of the PK enzymes. PK activity proportional to the rate of change at 340 nm was expressed as specific activity (μmol/min/mg), which is defined as the amount of PK that catalyzes the formation of one micromole of either product per minute. Inhibitors were dissolved in DMSO with the final concentration of the solvent never exceeding 1% of the assay volume. IC50 values were calculated by curve fitting on a four-parameter dose-response model with variable slope using Graphpad Prism 5.0™ (GraphPad™ Software Inc., La Jolla, Calif.). In all studies, less than 10% of total PEP was exhausted during the reaction. Reactions were performed at 30° C. for up to 5 min. All values determined represent at least two measurements, in triplicate (Tables 1-6) or duplicate unless mentioned otherwise. […]

T1 sequence (Q6GG09 whole entry): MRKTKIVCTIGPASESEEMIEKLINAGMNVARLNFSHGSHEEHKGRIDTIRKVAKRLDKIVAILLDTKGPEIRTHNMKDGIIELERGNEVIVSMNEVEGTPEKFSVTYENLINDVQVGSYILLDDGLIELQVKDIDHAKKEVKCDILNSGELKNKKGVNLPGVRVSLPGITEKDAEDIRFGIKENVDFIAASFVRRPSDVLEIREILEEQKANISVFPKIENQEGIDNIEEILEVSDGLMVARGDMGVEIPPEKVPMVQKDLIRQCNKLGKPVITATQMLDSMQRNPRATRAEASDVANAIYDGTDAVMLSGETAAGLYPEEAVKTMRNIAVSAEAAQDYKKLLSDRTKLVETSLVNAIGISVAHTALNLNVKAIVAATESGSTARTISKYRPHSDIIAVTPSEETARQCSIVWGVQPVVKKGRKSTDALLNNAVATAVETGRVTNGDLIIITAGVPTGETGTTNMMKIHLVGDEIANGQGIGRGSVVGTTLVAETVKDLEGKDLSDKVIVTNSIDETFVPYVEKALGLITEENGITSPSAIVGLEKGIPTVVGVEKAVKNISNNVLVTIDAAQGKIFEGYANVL

ON=C(c1c(CCc2ccc(Cl)cc2)[nH]c2cc(Br)ccc12)C(F)(F)F (racemic) [Compound 46, 1-(6-Bromo-2-(4-chlorophenethyl)-1H-indol-3-yl)-2,2,2-trifluoroethanone Oxime] was tested, and the MIC [1] was 1 µg/mL (≈ 2.24 µM) and the pIC50 [2] was under 6.00.
Work on O=C(c1c(/C=C/c2ccc(Cl)cc2)[nH]c2cc(Br)ccc12)C1CCOCC1 [Compound 1, (E)-(6-Bromo-2-(4-chlorostyryl)-1H-indol-3-yl)(tetrahydro-2H-pyran-4-yl)methanone] yielded an MIC [1] of over 64 µg/mL and a pIC50 [2] of over 7.00.
O=C(c1c(/C=C/c2ccc(Cl)cc2)[nH]c2cc(Br)ccc12)C1CC1 [Compound 2, (E)-(6-Bromo-2-(4-chlorostyryl)-1H-indol-3-yl)(cyclopropyl)methanone] showed an MIC [1] of 2 µg/mL (≈ 4.99 µM) and a pIC50 [2] of over 7.00.
With O=C(c1ccccc1)c1c(/C=C/c2ccc(Cl)cc2)[nH]c2cc(Br)ccc12 [Compound 3, (E)-(6-Bromo-2-(4-chlorostyryl)-1H-indol-3-yl)(phenyl)methanone] the MIC [1] was 16 µg/mL (≈ 36.6 µM) and the pIC50 [2] was over 7.00.
Compound O=C(c1c(CCc2ccc(Cl)cc2)[nH]c2cc(Br)ccc12)C1CCOCC1 [Compound 4, (6-Bromo-2-(4-chlorophenethyl)-1H-indol-3-yl)(tetrahydro-2H-pyran-4-yl)methanone] has an MIC [1] of 8 µg/mL (≈ 17.9 µM) and a pIC50 [2] of over 7.00.
Compound O=C(O)C(F)(F)C(F)(F)C(=O)c1c(/C=C/c2ccc(Cl)cc2)[nH]c2cc(Br)ccc12 [Compound 5, (E)-4-(6-Bromo-2-(4-chlorostyryl)-1H-indol-3-yl)-2,2,3,3-tetrafluoro-4-oxobutanoic Acid] has an MIC [1] of 32 µg/mL (≈ 63.4 µM) and a pIC50 [2] of over 7.00.
For CN1CCN(CCC(=O)c2c(/C=C/c3cn4ccccc4n3)[nH]c3cc(Br)ccc23)CC1 [Compound 8, (E)-1-(6-Bromo-2-(2-(imidazo[1,2-a]pyridin-2-yl)vinyl)-1H-indol-3-yl)-3-(4-methylpiperazin-1-yl)propan-1-one], the MIC [1] was 64 µg/mL (≈ 130 µM) and the pIC50 [2] was 6.00 to 7.00.
In the case of CN(C)CCC(=O)c1c(/C=C/c2cn3ccccc3n2)[nH]c2cc(Br)ccc12 [Compound 9, (E)-1-(6-Bromo-2-(2-(imidazo[1,2-a]pyridin-2-yl)vinyl)-1H-indol-3-yl)-3-(dimethylamino)propan-1-one], the MIC [1] was 32 µg/mL (≈ 73.2 µM) and the pIC50 [2] was 6.00 to 7.00.
Compound O=C(CCN1CCOCC1)c1c(/C=C/c2cn3ccccc3n2)[nH]c2cc(Br)ccc12 [Compound 10, (E)-1-(6-Bromo-2-(2-(imidazo[1,2-a]pyridin-2-yl)vinyl)-1H-indol-3-yl)-3-morpholinopropan-1-one] has an MIC [1] of over 64 µg/mL and a pIC50 [2] of 6.00 to 7.00.
OC(c1c(/C=C/c2ccc(Cl)cc2)[nH]c2cc(Br)ccc12)(C(F)(F)F)C(F)(F)F [Compound 13, (E)-2-(6-Bromo-2-(4-chlorostyryl)-1H-indol-3-yl)-1,1,1,3,3,3-hexafluoropropan-2-ol] gave an MIC [1] of 1 µg/mL (≈ 2.01 µM) and a pIC50 [2] of 6.00 to 7.00.
OC(c1c(CCc2ccc(Cl)cc2)[nH]c2cc(Br)ccc12)(C(F)(F)F)C(F)(F)F [Compound 14, 2-(6-Bromo-2-(4-chlorophenethyl)-1H-indol-3-yl)-1,1,1,3,3,3-hexafluoropropan-2-ol] was tested, and the MIC [1] was 1 µg/mL (≈ 2 µM) and the pIC50 [2] was 6.00 to 7.00.
With OC(c1c(/C=C/c2ccc(Cl)cc2)[nH]c2cc(Br)ccc12)C(F)(F)F (centres unmarked) [Compound 16, (E)-1-(6-Bromo-2-(4-chlorostyryl)-1H-indol-3-yl)-2,2,2-trifluoroethanol] the MIC [1] was 1 µg/mL (≈ 2.32 µM) and the pIC50 [2] was over 7.00.
OC(c1c(CCc2ccc(Cl)cc2)[nH]c2cc(Br)ccc12)C(F)(F)F (centres unmarked) [Compound 17] showed an MIC [1] of 2 µg/mL (≈ 4.62 µM) and a pIC50 [2] of 6.00 to 7.00.
Compound CC(O)(c1c(/C=C/c2ccc(Cl)cc2)[nH]c2cc(Br)ccc12)C(F)(F)F (centres unmarked) [Compound 18, (E)-2-(6-Bromo-2-(4-chlorostyryl)-1H-indol-3-yl)-1,1,1-trifluoropropan-2-ol] has an MIC [1] of 1 µg/mL (≈ 2.25 µM) and a pIC50 [2] of over 7.00.
Compound CN(C)C(=O)c1c(/C=C/c2ccc(Cl)cc2)[nH]c2cc(Br)ccc12 [Compound 21, (E)-6-Bromo-2-(4-chlorostyryl)-N,N-dimethyl-1H-indole-3-carboxamide] has an MIC [1] of over 64 µg/mL and a pIC50 [2] of over 7.00.
In the case of O=C(c1c(/C=C/c2ccc(Cl)cc2)[nH]c2cc(Br)ccc12)N1CCOCC1 [Compound 22, (E)-(6-Bromo-2-(4-chlorostyryl)-1H-indol-3-yl)(morpholino)methanone], the MIC [1] was over 64 µg/mL and the pIC50 [2] was over 7.00.
CN(C)CCN(C)C(=O)c1c(/C=C/c2ccc(Cl)cc2)[nH]c2cc(Br)ccc12 [Compound 24, (E)-6-Bromo-2-(4-chlorostyryl)-N-(2-(dimethylamino)ethyl)-N-methyl-1H-indole-3-carboxamide] showed an MIC [1] of over 64 µg/mL and a pIC50 [2] of 6.00 to 7.00.
Work on O=C(c1c(/C=C/c2ccc(Cl)cc2)[nH]c2cc(Br)ccc12)N1CCNCC1 [Compound 25, (E)-(6-Bromo-2-(4-chlorostyryl)-1H-indol-3-yl)(piperazin-1-yl)methanone] yielded an MIC [1] of 8 µg/mL (≈ 18 µM) and a pIC50 [2] of 6.00 to 7.00.
In the case of O=C(NC1CN2CCC1CC2)c1c(/C=C/c2ccc(Cl)cc2)[nH]c2cc(Br)ccc12 (centres unmarked) [Compound 26, (E)-6-Bromo-2-(4-chlorostyryl)-N-(quinuclidin-3-yl)-1H-indole-3-carboxamide], the MIC [1] was 8 µg/mL (≈ 16.5 µM) and the pIC50 [2] was 6.00 to 7.00.
For O=C(NCc1ccccc1)c1c(/C=C/c2ccc(Cl)cc2)[nH]c2cc(Br)ccc12 [Compound 27, (E)-N-Benzyl-6-bromo-2-(4-chlorostyryl)-1H-indole-3-carboxamide], the MIC [1] was over 64 µg/mL and the pIC50 [2] was over 7.00.
In the case of O=C(NCCO)c1c(/C=C/c2ccc(Cl)cc2)[nH]c2cc(Br)ccc12 [Compound 28, (E)-6-Bromo-2-(4-chlorostyryl)-N-(2-hydroxyethyl)-1H-indole-3-carboxamide], the MIC [1] was over 64 µg/mL and the pIC50 [2] was 6.00 to 7.00.
Compound O=C(NCCN1CCC(O)CC1)c1c(/C=C/c2ccc(Cl)cc2)[nH]c2cc(Br)ccc12 [Compound 30, (E)-6-Bromo-2-(4-chlorostyryl)-N-(2-(4-hydroxypiperidin-1-yl)ethyl)-1 H-indole-3-carboxamide] has an MIC [1] of 16 µg/mL (≈ 31.8 µM) and a pIC50 [2] of 6.00 to 7.00.
